Reference: US9908912B2, “Triclosan derivatives and uses thereof” (priority 2012, dated 2018)
Values after ≈ are worked out from the molar mass of the structure shown.

Columns and labels:
E. coli = assay: MIC in Nutrient Agar; type: cell-based, Escherichia coli; conditions: 8 strains; Nutrient Agar containing 0.1 μg/ml of inducer; 37° C., 24 hours
Protocol: (§1) The triclosan-glycosides were added to Nutrient Agar (Oxoid CM0003; Thermofisher Scientific) and organisms were transferred onto the plates surface using a multi-point inoculation device (Oxoid Cathra, Thermofisher Scientific). The latter is essentially a metal plate containing a number of needles. Each needle tip (usually 36 per plate) dips into an organism suspension (in phosphate buffered saline; PBS) and the needles are then moved over the agar plate and lowered onto its surface. In this way the growth of colonies of up to 36 different organisms can be observed on one plate.
(§2) Nutrient Agar No. 2 was prepared according to the manufacturers instructions, autoclaved and cooled to 50° C. Test compounds were then added as filter sterilised solutions (50:50 deionised water:ethanol), to give final concentrations from 256 μg/ml to 0 μg/ml in doubling dilutions. […] The mixtures were swirled then four plates (25 ml molten agar) were poured for each concentration. Plates were dried in a laminar flow cabinet then inoculated with overnight cultures of organisms that had been decimally diluted twice in sterile saline solution (approximately 10^7 cfu/ml) using a multi-point inoculator. Plates were then incubated at 37° C. for 24 hours. MICs were determined as the concentration at which no growth was observed.

Ent. cloacae = assay: MIC in Nutrient Agar; type: cell-based, Enterobacter cloacae; conditions: Nutrient Agar containing 0.1 μg/ml of inducer; 37° C., 24 hours
Protocol: as §1, §2

E. hermanii = assay: MIC in Nutrient Agar; type: cell-based, Escherichia hermanii; conditions: Nutrient Agar containing 0.1 μg/ml of inducer; 37° C., 24 hours
Protocol: as §1, §2

Staph. epidermidis = assay: MIC in Nutrient Broth No. 2; type: cell-based, Staphylococcus epidermidis; conditions: 3 strains, Nutrient Broth No. 2
Protocol: (§3) Bacteria species as indicated in Table 1 were incubated for approximately 24 hours at 37° C.
(§4) The tests were repeated with the addition of inducers. Methyl glycoside was the main inducer used, but other suitable inducers include isopropyl-β-D-thiogalactopyranoside, p-nitrophenyl-α-L-arabinopyranoside and p-nitrophenyl-β-D-xylopyranoside. Concentration of inducer in all cases was 100 μg/ml.

Aer. hydrophila = assay: MIC in Nutrient Agar; type: cell-based, Aeromonas hydrophila; conditions: Nutrient Agar containing 0.1 μg/ml of inducer; 37° C., 24 hours
Protocol: as §1, §2

[1] = test system: Kleb. pneumoniae ATCC 10031; assay: MIC in Nutrient Broth No. 2; type: cell-based, Klebsiella pneumoniae; conditions: Nutrient Broth No. 2
Protocol: as §3, §4

S. aureus = assay: MIC in Nutrient Agar; type: cell-based, Staphylococcus aureus; conditions: 8 strains; Nutrient Agar containing 0.1 μg/ml of inducer; 37° C., 24 hours
Protocol: as §1, §2

[2] = test system: Strep. pneumoniae ATCC 6305; assay: MIC in Nutrient Broth No. 2; type: cell-based, Streptococcus pneumoniae; conditions: Nutrient Broth No. 2
Protocol: as §3, §4

[3] = test system: Staph. saprophyticus ATCC 15305; assay: MIC in Nutrient Broth No. 2; type: cell-based, Staphylococcus saprophyticus; conditions: Nutrient Broth No. 2
Protocol: as §3, §4

[4] = test system: Enterococcus faecium ATCC 19434; assay: MIC in Nutrient Broth No. 2; type: cell-based; conditions: Nutrient Broth No. 2
Protocol: as §3, §4

Strep. viridans OCC 234 = assay: MIC in Nutrient Broth No. 2; type: cell-based, Streptococcus viridans; conditions: Nutrient Broth No. 2
Protocol: as §3, §4

Ent. aerogenes = assay: MIC in Nutrient Agar; type: cell-based, Enterobacter aerogenes; conditions: Nutrient Agar containing 0.1 μg/ml of inducer; 37° C., 24 hours
Protocol: as §1, §2

[5] = test system: Crono. sakazakii ATCC 29544; assay: MIC in Nutrient Broth No. 2; type: cell-based, Cronobacter sakazakii; conditions: Nutrient Broth No. 2
Protocol: as §3, §4

Cr. sakazakii = assay: MIC in Nutrient Agar; type: cell-based, Cronobacter sakazakii; conditions: Nutrient Agar containing 0.1 μg/ml of inducer; 37° C., 24 hours
Protocol: as §1, §2

Ent. faecium = assay: MIC in Nutrient Agar; type: cell-based, Enterococcus faecium; conditions: Nutrient Agar containing 0.1 μg/ml of inducer; 37° C., 24 hours
Protocol: as §1, §2

Ent. faecalis = assay: MIC in Nutrient Agar; type: cell-based, Enterococcus faecalis; conditions: Nutrient Agar containing 0.1 μg/ml of inducer; 37° C., 24 hours
Protocol: as §1, §2

S. epidermidis = assay: MIC in Nutrient Agar; type: cell-based, Staphylococcus epidermidis; conditions: 3 strains; Nutrient Agar containing 0.1 μg/ml of inducer; 37° C., 24 hours
Protocol: as §1, §2

Str. pneumoniae = assay: MIC in Nutrient Agar; type: cell-based, Streptococcus pneumoniae; conditions: Nutrient Agar containing 0.1 μg/ml of inducer; 37° C., 24 hours
Protocol: as §1, §2

Kleb. pneumoniae = assay: MIC in Nutrient Agar; type: cell-based, Klebsiella pneumoniae; conditions: Nutrient Agar containing 0.1 μg/ml of inducer; 37° C., 24 hours
Protocol: as §1, §2

Row | SMILES | MIC (E. coli) | MIC (Ent. cloacae) | MIC (E. hermanii) | MIC (Staph. epidermidis; with inducer 100 μg/ml) | MIC (Staph. epidermidis; without inducer) | MIC (Aer. hydrophila) | MIC ([1]; with inducer 100 μg/ml) | MIC ([1]; without inducer) | MIC (S. aureus) | MIC ([2]; with inducer 100 μg/ml) | MIC ([2]; without inducer) | MIC ([3]; with inducer 100 μg/ml) | MIC ([3]; without inducer) | MIC ([4]; with inducer 100 μg/ml) | MIC ([4]; without inducer) | MIC (Strep. viridans OCC 234; with inducer 100 μg/ml) | MIC (Strep. viridans OCC 234; without inducer) | MIC (Ent. aerogenes) | MIC ([5]; with inducer 100 μg/ml) | MIC ([5]; without inducer) | further results
1 | OC[C@H]1O[C@H](Oc2cc(Cl)ccc2Oc2ccc(Cl)cc2Cl)[C@H](O)[C@@H](O)[C@H]1O [α-D-Galactoside, triclosan-α-D-galactopyranoside] | 8 to 32 mg/L | 32 mg/L (≈ 70.8 µM) | 32 mg/L (≈ 70.8 µM) | 4 to 256 mg/L | 8 to 32 mg/L | >256 mg/L | 1 mg/L (≈ 2.21 µM) | 1 mg/L (≈ 2.21 µM) | 4 to 8 mg/L | 256 mg/L (≈ 567 µM) | 128 mg/L (≈ 283 µM) | 64 mg/L (≈ 142 µM) | 64 mg/L (≈ 142 µM) | >256 mg/L | >256 mg/L | >256 mg/L | >256 mg/L | 64 mg/L (≈ 142 µM) | 64 mg/L (≈ 142 µM) | 128 mg/L (≈ 283 µM) | MIC (Cr. sakazakii): 32 mg/L (≈ 70.8 µM); MIC (Ent. faecium): >256 mg/L; MIC (Ent. faecalis): >256 mg/L; MIC (S. epidermidis): 8 mg/L (≈ 17.7 µM); MIC (Str. pneumoniae): 256 mg/L (≈ 567 µM); MIC (Kleb. pneumoniae): 16 mg/L (≈ 35.4 µM)
2 | OC[C@H]1O[C@@H](Oc2cc(Cl)ccc2Oc2ccc(Cl)cc2Cl)[C@H](O)[C@@H](O)[C@@H]1O [β-D-Glucoside, triclosan-β-D-glucopyranoside] | 16 to 32 mg/L | 16 mg/L (≈ 35.4 µM) | 16 mg/L (≈ 35.4 µM) | 0.5 to 1 mg/L | 8 to 16 mg/L | >256 mg/L | 0.5 mg/L (≈ 1.11 µM) | 0.5 mg/L (≈ 1.11 µM) | 4 to 8 mg/L | 64 mg/L (≈ 142 µM) | 128 mg/L (≈ 283 µM) | 8 mg/L (≈ 17.7 µM) | 64 mg/L (≈ 142 µM) | 256 mg/L (≈ 567 µM) | >256 mg/L | 128 mg/L (≈ 283 µM) | 256 mg/L (≈ 567 µM) | 32 mg/L (≈ 70.8 µM) | 8 mg/L (≈ 17.7 µM) | 64 mg/L (≈ 142 µM) | MIC (Cr. sakazakii): 32 mg/L (≈ 70.8 µM); MIC (Ent. faecium): >256 mg/L; MIC (Ent. faecalis): >256 mg/L; MIC (S. epidermidis): 8 to 16 mg/L; MIC (Str. pneumoniae): 128 mg/L (≈ 283 µM); MIC (Kleb. pneumoniae): 4 mg/L (≈ 8.86 µM)
